# Data published in PMC12267702, “Harvest time and soil-plant relationship effects on phytochemical constituency and biological activities of psidium guajava L. leaves” (Scientific Reports, 2025).
# Marks after values point to notes of the source that are not given here.
# Tests used:
# Assay type in all cases: biochemical
# [1] = biological target: T1, 5-LOX enzyme (human recombinant) (Homo sapiens, UniProt P09917); experiment: 5-LOX enzyme inhibition assay (5-LOX kit)
# T1 construct: purchased Sigma-Aldrich
# T1 sequence (P09917 1-674): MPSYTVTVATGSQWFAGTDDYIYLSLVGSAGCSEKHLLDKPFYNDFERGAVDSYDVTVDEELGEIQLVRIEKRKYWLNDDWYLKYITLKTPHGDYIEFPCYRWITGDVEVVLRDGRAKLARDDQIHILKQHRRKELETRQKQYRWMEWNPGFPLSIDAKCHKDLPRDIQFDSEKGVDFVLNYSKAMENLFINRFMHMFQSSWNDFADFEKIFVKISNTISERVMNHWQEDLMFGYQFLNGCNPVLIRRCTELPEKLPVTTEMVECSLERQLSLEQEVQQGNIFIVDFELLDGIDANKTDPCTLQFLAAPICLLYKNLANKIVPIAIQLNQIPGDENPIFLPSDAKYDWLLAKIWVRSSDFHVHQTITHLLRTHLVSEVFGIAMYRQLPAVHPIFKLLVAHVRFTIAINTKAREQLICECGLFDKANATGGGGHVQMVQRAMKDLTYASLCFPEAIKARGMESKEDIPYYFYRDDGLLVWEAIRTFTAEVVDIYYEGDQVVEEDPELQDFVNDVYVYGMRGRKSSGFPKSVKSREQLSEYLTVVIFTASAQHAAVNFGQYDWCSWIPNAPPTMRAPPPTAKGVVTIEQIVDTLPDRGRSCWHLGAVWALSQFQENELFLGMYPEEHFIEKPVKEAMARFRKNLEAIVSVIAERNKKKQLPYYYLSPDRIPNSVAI
# α-amylase = α-amylase inhibition (in vitro anti-diabetic activity)
# Text: (§1) The anti-diabetic effects of the ethyl acetate fraction from dried P. guajava leaves, collected in March and August, were compared in vitro. This comparison involved measuring the inhibition of carbohydrate hydrolyzing enzymes, including α-amylase, α-glucosidase, and β-galactosidase, as detailed in Naguib et al.[28].
# α-glucosidase = α-glucosidase inhibition (in vitro anti-diabetic activity)
# Text: as §1
# β-galactosidase = β-galactosidase inhibition (in vitro anti-diabetic activity)
# Text: as §1
# [2] = DPPH free radical scavenging assay
# Experimental: (§2) Two distinct antioxidant assays were performed to evaluate the radical scavenging potential of the ethyl acetate fraction obtained from dried P. guajava leaves collected in March and August. […] Ascorbic acid served as the reference standard.
# [3] = ABTS free radical scavenging assay
# Experimental: as §2
compound,measurement,setting,value
CC(c1cc2ccccc2s1)N(O)C(N)=O (stereo not drawn) [Zileuton],inhibition at 1 µg/mL,[1]; 1 µg/ml,40.62 ± 0.08%
same,inhibition at 10 µg/mL,[1]; 10 µg/ml,61.39 ± 0.14%
same,inhibition at 100 µg/mL,[1]; 100 µg/ml,79.42 ± 0.13%
C[C@H]1O[C@H](O[C@H]2[C@H](O)[C@@H](O)[C@@H](O[C@H]3[C@H](O)[C@@H](O)C(O)O[C@@H]3CO)O[C@@H]2CO)[C@H](O)[C@@H](O)[C@@H]1N[C@H]1C=C(CO)[C@@H](O)[C@H](O)[C@H]1O (stereo partly drawn) [Acarbose],α-amylase Inhibition %,α-amylase; 10 µg/mL,38.57 ± 0.17^e %
same,α-amylase Inhibition %,α-amylase; 50 µg/mL,79.54 ± 0.12^d %
same,α-amylase Inhibition %,α-amylase; 100 µg/mL,86.31 ± 0.09^f %
same,α-glucosidase Inhibition %,α-glucosidase; 10 µg/mL,41.89 ± 0.10^c %
same,α-glucosidase Inhibition %,α-glucosidase; 50 µg/mL,80.36 ± 0.08^d %
same,α-glucosidase Inhibition %,α-glucosidase; 100 µg/mL,89.57 ± 0.15^f %
same,β-galactosidase Inhibition %,β-galactosidase; 10 µg/mL,43.78 ± 0.12^e %
same,β-galactosidase Inhibition %,β-galactosidase; 50 µg/mL,83.72 ± 0.09^f %
same,β-galactosidase Inhibition %,β-galactosidase; 100 µg/mL,91.40 ± 0.10^g %
O=C1O[C@H]([C@@H](O)CO)C(O)=C1O [Ascorbic acid],DPPH Inhibition percentages (%),[2]; 10 µg/ml,73.12 ± 0.15^g %
same,DPPH Inhibition percentages (%),[2]; 50 µg/ml,82.47 ± 0.13^h %
same,DPPH Inhibition percentages (%),[2]; 100 µg/ml,90.52 ± 0.09^i %
same,ABTS Inhibition percentages (%),[3]; 10 µg/ml,76.02 ± 0.11^g %
same,ABTS Inhibition percentages (%),[3]; 50 µg/ml,81.43 ± 0.08^h %
same,ABTS Inhibition percentages (%),[3]; 100 µg/ml,87.26 ± 0.13^i %
